In the kinase profiling compilation of Christmann-Franck et al. (2016):

Columns and labels:
Test in all cases: radiometric filter-binding kinase assay, Kinase HotSpot
Conditions in all cases: compound 0.5 µM; ATP 10 µM
DYRK1A (human) = DYRK1A (human) (UniProt Q13627)
NEK1 (human) = NEK1 (human) (UniProt Q96PY6)
MAP2K2 (human) = MAP2K2 (human) (UniProt P36507)
PRKCB1 (human) = PRKCB1 (human) (UniProt P05771)
CSNK2A2 (human) = CSNK2A2 (human) (UniProt P19784)
PRKCH (human) = PRKCH (human) (UniProt P24723)
[1] = biological target: JAK1 JH1 catalytic (human) (UniProt P23458)
CLK3 (human) = CLK3 (human) (UniProt P49761)
KIT (human) = KIT (human) (UniProt P10721)
PKN2 (human) = PKN2 (human) (UniProt Q16513)
STK17A (human) = STK17A (human) (UniProt Q9UEE5)
ACVRL1 (human) = ACVRL1 (human) (UniProt P37023)
GSK3A (human) = GSK3A (human) (UniProt P49840)
HIPK4 (human) = HIPK4 (human) (UniProt Q8NE63)
MELK (human) = MELK (human) (UniProt Q14680)
CHUK (human) = CHUK (human) (UniProt O15111)
KDR (human) = KDR (human) (UniProt P35968)
MAPK1 (human) = MAPK1 (human) (UniProt P28482)
CSK (human) = CSK (human) (UniProt P41240)
FLT1 (human) = FLT1 (human) (UniProt P17948)
EPHA1 (human) = EPHA1 (human) (UniProt P21709)
CDK6 CCND3 (human) = CDK6 CCND3 (human) (UniProt P30281+Q00534)
CAMKK2 (human) = CAMKK2 (human) (UniProt Q96RR4)
DCLK2 (human) = DCLK2 (human) (UniProt Q8N568)
NEK2 (human) = NEK2 (human) (UniProt P51955)
TEC (human) = TEC (human) (UniProt P42680)
AURKC (human) = AURKC (human) (UniProt Q9UQB9)
WEE1 (human) = WEE1 (human) (UniProt P30291)
MAPKAPK2 (human) = MAPKAPK2 (human) (UniProt P49137)
DYRK4 (human) = DYRK4 (human) (UniProt Q9NR20)
STK25 (human) = STK25 (human) (UniProt O00506)
TGFBR1 (human) = TGFBR1 (human) (UniProt P36897)
RPS6KA2 KD1 KD2 (human) = RPS6KA2 KD1 KD2 (human) (UniProt Q15349)
PTK2B (human) = PTK2B (human) (UniProt Q14289)
PTK6 (human) = PTK6 (human) (UniProt Q13882)
ROS1 (human) = ROS1 (human) (UniProt P08922)
CDK9 CCNK (human) = CDK9 CCNK (human) (UniProt O75909+P50750)
STK39 (human) = STK39 (human) (UniProt Q9UEW8)
TSSK1B (human) = TSSK1B (human) (UniProt Q9BXA7)
DYRK1B (human) = DYRK1B (human) (UniProt Q9Y463)
RPS6KA5 KD2 (human) = RPS6KA5 KD2 (human) (UniProt O75582)
CSNK1G3 (human) = CSNK1G3 (human) (UniProt Q9Y6M4)

Chain of EPHA1 (human) (P21709 whole entry, looked up): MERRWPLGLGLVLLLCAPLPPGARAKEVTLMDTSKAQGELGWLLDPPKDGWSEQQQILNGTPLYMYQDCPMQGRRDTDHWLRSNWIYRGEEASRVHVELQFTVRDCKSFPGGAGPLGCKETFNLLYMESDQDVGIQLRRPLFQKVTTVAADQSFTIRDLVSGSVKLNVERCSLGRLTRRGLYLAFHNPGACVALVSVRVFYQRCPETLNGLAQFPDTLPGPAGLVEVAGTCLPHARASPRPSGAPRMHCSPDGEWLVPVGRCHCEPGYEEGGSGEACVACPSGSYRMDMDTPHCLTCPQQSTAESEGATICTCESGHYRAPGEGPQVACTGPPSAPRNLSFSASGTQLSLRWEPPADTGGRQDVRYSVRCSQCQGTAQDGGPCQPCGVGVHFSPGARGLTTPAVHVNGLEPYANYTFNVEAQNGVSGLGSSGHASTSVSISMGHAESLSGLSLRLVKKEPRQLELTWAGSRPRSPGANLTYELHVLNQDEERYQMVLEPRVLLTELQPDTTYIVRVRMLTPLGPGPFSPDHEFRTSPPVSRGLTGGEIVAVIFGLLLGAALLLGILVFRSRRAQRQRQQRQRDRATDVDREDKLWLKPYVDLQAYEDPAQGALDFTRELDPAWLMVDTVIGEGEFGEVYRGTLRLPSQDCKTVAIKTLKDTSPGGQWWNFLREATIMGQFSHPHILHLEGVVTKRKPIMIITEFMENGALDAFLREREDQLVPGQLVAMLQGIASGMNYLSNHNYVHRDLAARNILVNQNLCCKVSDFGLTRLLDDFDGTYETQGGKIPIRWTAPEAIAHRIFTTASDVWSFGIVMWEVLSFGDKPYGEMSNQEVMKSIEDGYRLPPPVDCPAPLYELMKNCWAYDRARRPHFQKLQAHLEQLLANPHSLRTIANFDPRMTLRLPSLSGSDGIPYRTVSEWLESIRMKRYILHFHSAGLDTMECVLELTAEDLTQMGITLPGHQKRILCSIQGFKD
Chain of STK25 (human) (O00506 whole entry, looked up): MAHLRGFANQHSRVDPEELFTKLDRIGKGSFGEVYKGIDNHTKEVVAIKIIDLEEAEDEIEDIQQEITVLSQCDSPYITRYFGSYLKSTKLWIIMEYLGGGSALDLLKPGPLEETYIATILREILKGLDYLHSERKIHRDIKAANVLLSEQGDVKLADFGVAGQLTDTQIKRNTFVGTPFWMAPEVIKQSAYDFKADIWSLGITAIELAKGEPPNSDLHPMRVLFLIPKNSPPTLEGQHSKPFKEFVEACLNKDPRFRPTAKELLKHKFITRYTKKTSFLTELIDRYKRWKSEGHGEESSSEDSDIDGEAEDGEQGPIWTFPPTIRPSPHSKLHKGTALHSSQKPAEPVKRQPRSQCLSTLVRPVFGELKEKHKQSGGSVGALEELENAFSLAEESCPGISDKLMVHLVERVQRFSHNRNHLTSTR
Chain of PRKCH (human) (P24723 whole entry, looked up): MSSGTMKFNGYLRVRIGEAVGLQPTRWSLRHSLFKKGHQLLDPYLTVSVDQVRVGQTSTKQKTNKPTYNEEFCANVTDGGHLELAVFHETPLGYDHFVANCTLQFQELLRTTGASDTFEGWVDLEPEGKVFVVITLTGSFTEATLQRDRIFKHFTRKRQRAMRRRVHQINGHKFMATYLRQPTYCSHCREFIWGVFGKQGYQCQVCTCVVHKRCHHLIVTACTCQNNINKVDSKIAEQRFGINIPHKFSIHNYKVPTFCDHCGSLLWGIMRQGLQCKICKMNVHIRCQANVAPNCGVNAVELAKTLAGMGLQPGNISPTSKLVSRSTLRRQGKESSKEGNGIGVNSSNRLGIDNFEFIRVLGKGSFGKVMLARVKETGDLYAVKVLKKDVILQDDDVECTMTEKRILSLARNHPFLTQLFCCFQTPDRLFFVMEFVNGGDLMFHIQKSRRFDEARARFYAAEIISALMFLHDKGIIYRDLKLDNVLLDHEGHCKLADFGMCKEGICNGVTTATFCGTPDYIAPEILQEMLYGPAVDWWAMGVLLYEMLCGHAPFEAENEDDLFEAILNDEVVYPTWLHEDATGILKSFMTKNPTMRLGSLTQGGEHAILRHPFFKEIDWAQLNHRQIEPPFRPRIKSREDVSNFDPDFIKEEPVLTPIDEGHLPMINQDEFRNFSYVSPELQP
Chain of PTK6 (human) (Q13882 whole entry, looked up): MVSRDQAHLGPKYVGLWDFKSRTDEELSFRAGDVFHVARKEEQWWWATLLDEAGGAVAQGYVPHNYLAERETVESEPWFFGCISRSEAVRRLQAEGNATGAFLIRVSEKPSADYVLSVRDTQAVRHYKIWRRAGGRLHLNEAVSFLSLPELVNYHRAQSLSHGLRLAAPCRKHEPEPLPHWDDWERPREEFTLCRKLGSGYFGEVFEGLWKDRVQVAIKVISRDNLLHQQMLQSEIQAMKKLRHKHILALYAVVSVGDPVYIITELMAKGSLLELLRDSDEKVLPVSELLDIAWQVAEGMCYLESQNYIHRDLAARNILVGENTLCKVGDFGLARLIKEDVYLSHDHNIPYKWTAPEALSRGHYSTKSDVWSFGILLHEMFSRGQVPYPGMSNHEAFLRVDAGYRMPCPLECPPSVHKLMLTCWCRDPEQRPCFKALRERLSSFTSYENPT
Chain of ROS1 (human) (P08922 whole entry, looked up): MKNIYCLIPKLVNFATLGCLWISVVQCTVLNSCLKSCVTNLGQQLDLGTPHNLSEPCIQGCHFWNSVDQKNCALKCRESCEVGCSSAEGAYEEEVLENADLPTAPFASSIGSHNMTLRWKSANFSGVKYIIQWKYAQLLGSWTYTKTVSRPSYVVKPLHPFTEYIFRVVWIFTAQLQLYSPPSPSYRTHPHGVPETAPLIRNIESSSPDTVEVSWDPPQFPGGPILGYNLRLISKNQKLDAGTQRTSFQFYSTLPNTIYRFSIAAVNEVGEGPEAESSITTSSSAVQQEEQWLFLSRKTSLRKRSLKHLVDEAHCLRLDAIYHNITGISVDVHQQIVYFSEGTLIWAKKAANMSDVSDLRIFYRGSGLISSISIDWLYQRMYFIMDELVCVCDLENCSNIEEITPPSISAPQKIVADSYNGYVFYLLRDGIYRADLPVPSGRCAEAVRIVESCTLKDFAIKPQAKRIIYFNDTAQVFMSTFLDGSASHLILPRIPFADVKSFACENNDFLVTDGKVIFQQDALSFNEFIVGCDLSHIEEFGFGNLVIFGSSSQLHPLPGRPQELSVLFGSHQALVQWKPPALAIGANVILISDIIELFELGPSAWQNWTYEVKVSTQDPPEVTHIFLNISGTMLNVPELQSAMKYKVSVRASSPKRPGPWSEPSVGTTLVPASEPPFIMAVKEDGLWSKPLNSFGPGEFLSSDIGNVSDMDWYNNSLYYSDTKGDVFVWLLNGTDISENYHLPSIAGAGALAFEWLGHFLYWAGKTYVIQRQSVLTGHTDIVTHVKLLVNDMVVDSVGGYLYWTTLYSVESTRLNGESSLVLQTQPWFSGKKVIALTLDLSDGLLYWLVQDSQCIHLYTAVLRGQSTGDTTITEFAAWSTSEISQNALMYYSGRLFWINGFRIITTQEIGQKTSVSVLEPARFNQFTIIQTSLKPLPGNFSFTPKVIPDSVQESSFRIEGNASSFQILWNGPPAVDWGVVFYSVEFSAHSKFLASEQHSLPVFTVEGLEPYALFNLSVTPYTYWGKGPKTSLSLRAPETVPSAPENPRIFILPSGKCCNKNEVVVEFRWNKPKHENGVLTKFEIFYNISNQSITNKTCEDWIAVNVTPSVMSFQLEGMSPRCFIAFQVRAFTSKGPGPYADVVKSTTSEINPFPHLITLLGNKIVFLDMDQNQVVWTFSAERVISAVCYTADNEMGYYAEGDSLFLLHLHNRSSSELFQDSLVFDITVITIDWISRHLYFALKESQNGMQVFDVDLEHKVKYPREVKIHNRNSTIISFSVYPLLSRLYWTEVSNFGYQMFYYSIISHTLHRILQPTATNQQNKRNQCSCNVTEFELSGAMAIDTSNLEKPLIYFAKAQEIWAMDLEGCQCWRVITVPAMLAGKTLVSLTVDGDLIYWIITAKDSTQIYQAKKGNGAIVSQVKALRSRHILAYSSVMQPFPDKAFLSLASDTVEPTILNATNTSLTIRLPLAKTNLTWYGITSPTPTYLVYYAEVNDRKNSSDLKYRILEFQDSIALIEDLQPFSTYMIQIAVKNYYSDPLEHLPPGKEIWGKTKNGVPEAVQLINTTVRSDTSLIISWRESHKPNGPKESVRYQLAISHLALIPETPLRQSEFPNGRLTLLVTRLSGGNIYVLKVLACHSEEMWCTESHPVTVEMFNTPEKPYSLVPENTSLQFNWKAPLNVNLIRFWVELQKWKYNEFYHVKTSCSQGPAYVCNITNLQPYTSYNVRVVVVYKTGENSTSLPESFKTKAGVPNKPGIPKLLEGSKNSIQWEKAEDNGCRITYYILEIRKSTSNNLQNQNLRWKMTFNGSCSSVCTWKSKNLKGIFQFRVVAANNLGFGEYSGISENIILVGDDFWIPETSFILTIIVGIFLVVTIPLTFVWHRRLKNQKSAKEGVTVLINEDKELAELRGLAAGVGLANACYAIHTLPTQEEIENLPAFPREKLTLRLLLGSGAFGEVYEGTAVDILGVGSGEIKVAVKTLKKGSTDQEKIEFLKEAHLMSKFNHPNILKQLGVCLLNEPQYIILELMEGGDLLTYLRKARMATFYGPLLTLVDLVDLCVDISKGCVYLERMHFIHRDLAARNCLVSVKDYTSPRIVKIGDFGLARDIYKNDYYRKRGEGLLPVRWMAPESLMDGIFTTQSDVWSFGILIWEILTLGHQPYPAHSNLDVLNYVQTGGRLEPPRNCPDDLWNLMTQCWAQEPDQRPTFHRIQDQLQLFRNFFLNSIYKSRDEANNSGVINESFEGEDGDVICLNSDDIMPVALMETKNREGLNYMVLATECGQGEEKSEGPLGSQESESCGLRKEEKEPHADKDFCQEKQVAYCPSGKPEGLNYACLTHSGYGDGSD

O=C1NC(=O)c2cc(Nc3ccc(F)cc3)c(Nc3ccc(F)cc3)cc21
residual activity (DYRK1A (human)): 95.6%
residual activity (NEK1 (human)): 88%
residual activity (MAP2K2 (human)): 89.5%
residual activity (PRKCB1 (human)): 28.2%
residual activity (CSNK2A2 (human)): 104%
residual activity (PRKCH (human)): 83.3%
residual activity [1]: 91.5%
residual activity (CLK3 (human)): 93.7%
residual activity (KIT (human)): 97.2%
residual activity (PKN2 (human)): 102%
residual activity (STK17A (human)): 104%
residual activity (ACVRL1 (human)): 95.9%
residual activity (GSK3A (human)): 88.2%
residual activity (HIPK4 (human)): 82.5%
residual activity (MELK (human)): 92%
residual activity (CHUK (human)): 99.2%
residual activity (KDR (human)): 97.9%
residual activity (MAPK1 (human)): 121%
residual activity (CSK (human)): 92%
residual activity (FLT1 (human)): 81.5%
residual activity (EPHA1 (human)): 97.4%
residual activity (CDK6 CCND3 (human)): 89.9%
residual activity (CAMKK2 (human)): 88.3%
residual activity (DCLK2 (human)): 100%
residual activity (NEK2 (human)): 96.3%
residual activity (TEC (human)): 102%
residual activity (AURKC (human)): 90.8%
residual activity (WEE1 (human)): 99.6%
residual activity (MAPKAPK2 (human)): 95.7%
residual activity (DYRK4 (human)): 98.6%
residual activity (STK25 (human)): 101%
residual activity (TGFBR1 (human)): 98.1%
residual activity (RPS6KA2 KD1 KD2 (human)): 98.7%
residual activity (PTK2B (human)): 111%
residual activity (PTK6 (human)): 95.1%
residual activity (ROS1 (human)): 92%
residual activity (CDK9 CCNK (human)): 90.8%
residual activity (STK39 (human)): 89.2%
residual activity (TSSK1B (human)): 90.2%
residual activity (DYRK1B (human)): 105%
residual activity (RPS6KA5 KD2 (human)): 93.6%
residual activity (CSNK1G3 (human)): 90.7%

Cc1cc(Nc2nc(-c3ccccc3)nc3ccccc23)n[nH]1
residual activity (DYRK1A (human)): 104%
residual activity (NEK1 (human)): 93%
residual activity (MAP2K2 (human)): 102%
residual activity (PRKCB1 (human)): 99.9%
residual activity (CSNK2A2 (human)): 15%
residual activity (PRKCH (human)): 89.6%
residual activity [1]: 83.7%
residual activity (CLK3 (human)): 33.8%
residual activity (KIT (human)): 40.8%
residual activity (PKN2 (human)): 87.2%
residual activity (STK17A (human)): 81.3%
residual activity (ACVRL1 (human)): 115%
residual activity (GSK3A (human)): 11.3%
residual activity (HIPK4 (human)): 102%
residual activity (MELK (human)): 69.1%
residual activity (CHUK (human)): 96.5%
residual activity (KDR (human)): 36.5%
residual activity (MAPK1 (human)): 89.3%
residual activity (CSK (human)): 98.4%
residual activity (FLT1 (human)): 78.7%
residual activity (EPHA1 (human)): 69.9%
residual activity (CDK6 CCND3 (human)): 58.4%
residual activity (CAMKK2 (human)): 88.6%
residual activity (DCLK2 (human)): 87.4%
residual activity (NEK2 (human)): 99.3%
residual activity (TEC (human)): 106%
residual activity (AURKC (human)): 51.8%
residual activity (WEE1 (human)): 88%
residual activity (MAPKAPK2 (human)): 100%
residual activity (DYRK4 (human)): 103%
residual activity (STK25 (human)): 86.7%
residual activity (TGFBR1 (human)): 97.1%
residual activity (RPS6KA2 KD1 KD2 (human)): 50.7%
residual activity (PTK2B (human)): 61.4%
residual activity (PTK6 (human)): 61.6%
residual activity (ROS1 (human)): 16.7%
residual activity (CDK9 CCNK (human)): 89.8%
residual activity (STK39 (human)): 118%
residual activity (TSSK1B (human)): 76.7%
residual activity (DYRK1B (human)): 90.8%
residual activity (RPS6KA5 KD2 (human)): 70.5%
residual activity (CSNK1G3 (human)): 75%

O=c1c2ccccc2[nH]c(=S)n1CCN1CCC(=C(c2ccc(F)cc2)c2ccc(F)cc2)CC1
residual activity (DYRK1A (human)): 99.9%
residual activity (NEK1 (human)): 109%
residual activity (MAP2K2 (human)): 101%
residual activity (PRKCB1 (human)): 96%
residual activity (CSNK2A2 (human)): 97.7%
residual activity (PRKCH (human)): 102%
residual activity [1]: 105%
residual activity (CLK3 (human)): 101%
residual activity (KIT (human)): 103%
residual activity (PKN2 (human)): 97.2%
residual activity (STK17A (human)): 103%
residual activity (ACVRL1 (human)): 101%
residual activity (GSK3A (human)): 104%
residual activity (HIPK4 (human)): 98.4%
residual activity (MELK (human)): 104%
residual activity (CHUK (human)): 95%
residual activity (KDR (human)): 93.1%
residual activity (MAPK1 (human)): 102%
residual activity (CSK (human)): 119%
residual activity (FLT1 (human)): 95.2%
residual activity (EPHA1 (human)): 107%
residual activity (CDK6 CCND3 (human)): 98.2%
residual activity (CAMKK2 (human)): 100%
residual activity (DCLK2 (human)): 101%
residual activity (NEK2 (human)): 100%
residual activity (TEC (human)): 110%
residual activity (AURKC (human)): 99.4%
residual activity (WEE1 (human)): 93%
residual activity (MAPKAPK2 (human)): 106%
residual activity (DYRK4 (human)): 97.5%
residual activity (STK25 (human)): 96.6%
residual activity (TGFBR1 (human)): 96.2%
residual activity (RPS6KA2 KD1 KD2 (human)): 107%
residual activity (PTK2B (human)): 98.5%
residual activity (PTK6 (human)): 100%
residual activity (ROS1 (human)): 98.8%
residual activity (CDK9 CCNK (human)): 104%
residual activity (STK39 (human)): 96.8%
residual activity (TSSK1B (human)): 106%
residual activity (DYRK1B (human)): 97.1%
residual activity (RPS6KA5 KD2 (human)): 105%
residual activity (CSNK1G3 (human)): 97.1%

COc1cc2c(N3CCN(C(=O)Nc4ccc(OC(C)C)cc4)CC3)ncnc2cc1OCCCN1CCCCC1
residual activity (DYRK1A (human)): 104%
residual activity (NEK1 (human)): 119%
residual activity (MAP2K2 (human)): 116%
residual activity (PRKCB1 (human)): 98.4%
residual activity (CSNK2A2 (human)): 92.9%
residual activity (PRKCH (human)): 108%
residual activity [1]: 102%
residual activity (CLK3 (human)): 93.4%
residual activity (KIT (human)): 45.1%
residual activity (PKN2 (human)): 110%
residual activity (STK17A (human)): 103%
residual activity (ACVRL1 (human)): 102%
residual activity (GSK3A (human)): 105%
residual activity (HIPK4 (human)): 99.5%
residual activity (MELK (human)): 87.9%
residual activity (CHUK (human)): 98.3%
residual activity (KDR (human)): 106%
residual activity (MAPK1 (human)): 87%
residual activity (CSK (human)): 99.3%
residual activity (FLT1 (human)): 99.4%
residual activity (EPHA1 (human)): 96.1%
residual activity (CDK6 CCND3 (human)): 92.7%
residual activity (CAMKK2 (human)): 101%
residual activity (DCLK2 (human)): 103%
residual activity (NEK2 (human)): 101%
residual activity (TEC (human)): 89%
residual activity (AURKC (human)): 97%
residual activity (WEE1 (human)): 97.5%
residual activity (MAPKAPK2 (human)): 100%
residual activity (DYRK4 (human)): 101%
residual activity (STK25 (human)): 93.4%
residual activity (TGFBR1 (human)): 102%
residual activity (RPS6KA2 KD1 KD2 (human)): 98.6%
residual activity (PTK2B (human)): 99.3%
residual activity (PTK6 (human)): 92.9%
residual activity (ROS1 (human)): 90.1%
residual activity (CDK9 CCNK (human)): 107%
residual activity (STK39 (human)): 93.2%
residual activity (TSSK1B (human)): 96.8%
residual activity (DYRK1B (human)): 97.9%
residual activity (RPS6KA5 KD2 (human)): 109%
residual activity (CSNK1G3 (human)): 95%
